Results taken from patent US9738634B2, “Heterocyclic amide compound and herbicide” (SYNGENTA PARTICIPATIONS AG, priority 2013, dated 2017).

How the values were obtained:
Assay type in all cases: in vivo
Conditions in all cases: treatment dosage 320 g/ha
Italian ryegrass [1] = assay: Test Example 3: weedkilling efficacy through soil treatment; I: Italian ryegrass
Outline: (§1)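 Crop and weed responses were judged three weeks after a uniform surface spray of the water-diluted emulsion at the given g/ha rate. Seeds sat beneath about 1.5 cm of sterilized diluvial soil, and boxes stood in a greenhouse at 25 to 30° C.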

catchweed [2] = assay: Test Example 3: weedkilling efficacy through soil treatment; O: catchweed
Outline: as §1

wild oat [3] = assay: Test Example 4: weedkilling efficacy by foliar treatment; G: wild oat
Outline: (§2)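 Seeds are spot-sown into sterilized diluvial soil and covered with about 1.5 cm of soil. After 14 days' greenhouse growth at 25 to 30° C, plants are sprayed on stems and leaves with diluted emulsion at the stated g/ha rate, then scored at 3 weeks.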

Indian mallow [4] = assay: Test Example 4: weedkilling efficacy by foliar treatment; K: Indian mallow
Outline: as §2

corn [5] = assay: Test Example 4: foliar treatment, effect on crop; c: corn
Outline: as §2

black-grass [6] = assay: Test Example 4: weedkilling efficacy by foliar treatment; H: black-grass
Outline: as §2

beet [7] = assay: Test Example 3: soil treatment, effect on crop; f: beet
Outline: as §1

bulrush [8] = assay: Test Example 1: weedkilling efficacy, preemergent weed treatment in the submerged state; B: bulrush
Outline: (§3)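 Emulsion diluted with water to the specified per-hectare dosage is applied onto flood water (4 cm) over alluvial soil on the sowing day, with barnyard grass, bulrush and pondweed seeded and rice (2.5-leaf) transplanted; plants grow at 25–30 °C and are rated at 3 weeks.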

common wind-grass [9] = assay: Test Example 3: weedkilling efficacy through soil treatment; J: common wind-grass
Outline: as §1

barnyard grass [10] = assay: Test Example 4: weedkilling efficacy by foliar treatment; F: barnyard grass
Procedure: (§4) Testing of Weedkilling Efficacy by Foliar Treatment
(§5) Sterilized diluvial soil was introduced into 21 cm long, 13 cm wide, 7 cm deep plastic boxes, and seeds of crabgrass, green foxtail, barnyard grass, wild oat, black-grass, Italian ryegrass, common wind-grass, Indian mallow, redroot pigweed, fig-leafed goosefoot, chickweed, catchweed, birds-eye speedwell, corn, soybean, rice, wheat, beet and rapeseed were each spot-sown, and covered with about 1.5 cm of soil, then the plants were grown in a greenhouse at 25 to 30° C.
(§6) After they had grown for 14 days, emulsions of compounds of the present invention prepared according to compounding example 2 were diluted with water to give the specified dosages, and applied uniformly onto the stem and leaf parts with a small sprayer. 3 weeks after the pesticide treatment the effect on each type of plant was investigated on the basis of the assessment criteria of test example 1.
(§7) A: barnyard grass, B: bulrush, C: oval-leafed pondweed, D: crabgrass, E: green foxtail, F: barnyard grass, G: wild oat, H: black-grass, I: Italian ryegrass, J: common wind-grass, K: Indian mallow, L: redroot pigweed, M: fig-leafed goosefoot, N: chickweed, O: catchweed, p: birds-eye speedwell, a: transplanted rice, b: directly sown rice, c: corn, d: soybean, e: wheat, f: beet, g: rapeseed
(§8) Further, pesticide dosage (g/ha) indicates the concentration regulated such that treatment was with only the stated number of grams (g), when calculated per hectare (ha).

black-grass [11] = assay: Test Example 3: weedkilling efficacy through soil treatment; H: black-grass
Outline: as §1

barnyard grass [12] = assay: Test Example 3: weedkilling efficacy through soil treatment; F: barnyard grass
Outline: as §1

green foxtail [13] = assay: Test Example 3: weedkilling efficacy through soil treatment; E: green foxtail
Outline: as §1

corn [14] = assay: Test Example 3: soil treatment, effect on crop; c: corn
Outline: as §1

redroot pigweed [15] = assay: Test Example 3: weedkilling efficacy through soil treatment; L: redroot pigweed
Outline: as §1

crabgrass [16] = assay: Test Example 3: weedkilling efficacy through soil treatment; D: crabgrass
Outline: as §1

rapeseed [17] = assay: Test Example 3: soil treatment, effect on crop; g: rapeseed
Outline: as §1

green foxtail [18] = assay: Test Example 4: weedkilling efficacy by foliar treatment; E: green foxtail
Outline: as §2

chickweed = assay: Test Example 4: weedkilling efficacy by foliar treatment; N: chickweed
Outline: as §2

crabgrass [19] = assay: Test Example 4: weedkilling efficacy by foliar treatment; D: crabgrass
Outline: as §2

redroot pigweed [20] = assay: Test Example 4: weedkilling efficacy by foliar treatment; L: redroot pigweed
Outline: as §2

wild oat [21] = assay: Test Example 3: weedkilling efficacy through soil treatment; G: wild oat
Outline: as §1

soybean [22] = assay: Test Example 4: foliar treatment, effect on crop; d: soybean
Outline: as §2

oval-leafed pondweed [23] = assay: Test Example 1: weedkilling efficacy, preemergent weed treatment in the submerged state; C: oval-leafed pondweed
Outline: as §3

birds-eye speedwell = assay: Test Example 3: weedkilling efficacy through soil treatment; p: birds-eye speedwell
Outline: as §1

transplanted rice = assay: Test Example 1: preemergent weed treatment in the submerged state, effect on crop; a: transplanted rice
Outline: as §3

Indian mallow [24] = assay: Test Example 3: weedkilling efficacy through soil treatment; K: Indian mallow
Outline: as §1

barnyard grass [25] = assay: Test Example 1: weedkilling efficacy, preemergent weed treatment in the submerged state; A: barnyard grass
Outline: as §3

common wind-grass [26] = assay: Test Example 4: weedkilling efficacy by foliar treatment; J: common wind-grass
Outline: as §2

Italian ryegrass [27] = assay: Test Example 4: weedkilling efficacy by foliar treatment; I: Italian ryegrass
Outline: as §2

bulrush [28] = assay: Test Example 2: weedkilling efficacy, growth period weed treatment in the submerged state; B: bulrush
Outline: (§9)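 First, alluvial soil in pots is flooded to 4 cm and mixed seed is sown. Next, plants grow in a greenhouse at 25 to 30° C until the 1-2 leaf stage. Then diluted emulsion is applied onto the water surface at the given g/ha rate, and injury is assessed after 3 weeks.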

catchweed [29] = assay: Test Example 4: weedkilling efficacy by foliar treatment; O: catchweed
Outline: as §2

soybean [30] = assay: Test Example 3: soil treatment, effect on crop; d: soybean
Outline: as §1

wheat [31] = assay: Test Example 3: soil treatment, effect on crop; e: wheat
Outline: as §1

wheat [32] = assay: Test Example 4: foliar treatment, effect on crop; e: wheat
Outline: as §2

fig-leafed goosefoot = assay: Test Example 4: weedkilling efficacy by foliar treatment; M: fig-leafed goosefoot
Outline: as §2

directly sown rice [33] = assay: Test Example 4: foliar treatment, effect on crop; b: directly sown rice
Outline: as §2

oval-leafed pondweed [34] = assay: Test Example 2: weedkilling efficacy, growth period weed treatment in the submerged state; C: oval-leafed pondweed
Outline: as §9

rapeseed [35] = assay: Test Example 4: foliar treatment, effect on crop; g: rapeseed
Procedure: as §4, §5, §6, §7, §8

beet [36] = assay: Test Example 4: foliar treatment, effect on crop; f: beet
Outline: as §2

barnyard grass [37] = assay: Test Example 2: weedkilling efficacy, growth period weed treatment in the submerged state; A: barnyard grass
Outline: as §9

directly sown rice [38] = assay: Test Example 3: soil treatment, effect on crop; b: directly sown rice
Outline: as §1

## CC1=C(c2ccccc2)C(=O)N(C(C)(C)C(=O)Nc2cc(Br)cc(F)n2)CO1 [B-2-35]
Italian ryegrass [1]
  I (Italian ryegrass) weedkilling efficacy grade: 5 (weed kill ratio 90% or more, (practically complete withering))
Catchweed [2]
  O (catchweed) weedkilling efficacy grade: 0 (weed kill ratio 5% or less (practically no effect))
Wild oat [3]
  G (wild oat) weedkilling efficacy grade: 2 (weed kill ratio 20% or more, less than 40%)
Indian mallow [4]
  K (Indian mallow) weedkilling efficacy grade: 3 (weed kill ratio 40% or more, less than 70%)
Corn [5]
  c (corn) effect on crop grade: 1 (weed kill ratio 5% or more, less than 20%)
black-grass [6]
  H (black-grass) weedkilling efficacy grade: 4 (weed kill ratio 70% or more, less than 90%)
Beet [7]
  f (beet) effect on crop grade: 4 (weed kill ratio 70% or more, less than 90%)
Bulrush [8]
  B (bulrush) weedkilling efficacy grade: 5 (weed kill ratio 90% or more, (practically complete withering))
Common wind-grass [9]
  J (common wind-grass) weedkilling efficacy grade: 5 (weed kill ratio 90% or more, (practically complete withering))
Barnyard grass [10]
  F (barnyard grass) weedkilling efficacy grade: 5 (weed kill ratio 90% or more, (practically complete withering))
black-grass [11]
  H (black-grass) weedkilling efficacy grade: 5 (weed kill ratio 90% or more, (practically complete withering))
Barnyard grass [12]
  F (barnyard grass) weedkilling efficacy grade: 4 (weed kill ratio 70% or more, less than 90%)
Green foxtail [13]
  E (green foxtail) weedkilling efficacy grade: 5 (weed kill ratio 90% or more, (practically complete withering))
Corn [14]
  c (corn) effect on crop grade: 1 (weed kill ratio 5% or more, less than 20%)
Redroot pigweed [15]
  L (redroot pigweed) weedkilling efficacy grade: 3 (weed kill ratio 40% or more, less than 70%)
Crabgrass [16]
  D (crabgrass) weedkilling efficacy grade: 5 (weed kill ratio 90% or more, (practically complete withering))
Rapeseed [17]
  g (rapeseed) effect on crop grade: 4 (weed kill ratio 70% or more, less than 90%)
Green foxtail [18]
  E (green foxtail) weedkilling efficacy grade: 5 (weed kill ratio 90% or more, (practically complete withering))
chickweed
  N (chickweed) weedkilling efficacy grade: 3 (weed kill ratio 40% or more, less than 70%)
Crabgrass [19]
  D (crabgrass) weedkilling efficacy grade: 5 (weed kill ratio 90% or more, (practically complete withering))
Redroot pigweed [20]
  L (redroot pigweed) weedkilling efficacy grade: 3 (weed kill ratio 40% or more, less than 70%)
Wild oat [21]
  G (wild oat) weedkilling efficacy grade: 4 (weed kill ratio 70% or more, less than 90%)
Soybean [22]
  d (soybean) effect on crop grade: 4 (weed kill ratio 70% or more, less than 90%)
oval-leafed pondweed [23]
  C (oval-leafed pondweed) weedkilling efficacy grade: 5 (weed kill ratio 90% or more, (practically complete withering))
birds-eye speedwell
  P (birds-eye speedwell) weedkilling efficacy grade: 4 (weed kill ratio 70% or more, less than 90%)
Transplanted rice
  a (transplanted rice) effect on crop grade: 0 (weed kill ratio 5% or less (practically no effect))
Indian mallow [24]
  K (Indian mallow) weedkilling efficacy grade: 4 (weed kill ratio 70% or more, less than 90%)
Barnyard grass [25]
  A (barnyard grass) weedkilling efficacy grade: 5 (weed kill ratio 90% or more, (practically complete withering))
Common wind-grass [26]
  J (common wind-grass) weedkilling efficacy grade: 4 (weed kill ratio 70% or more, less than 90%)
Italian ryegrass [27]
  I (Italian ryegrass) weedkilling efficacy grade: 4 (weed kill ratio 70% or more, less than 90%)
Bulrush [28]
  B (bulrush) weedkilling efficacy grade: 5 (weed kill ratio 90% or more, (practically complete withering))
Catchweed [29]
  O (catchweed) weedkilling efficacy grade: 5 (weed kill ratio 90% or more, (practically complete withering))
Soybean [30]
  d (soybean) effect on crop grade: 0 (weed kill ratio 5% or less (practically no effect))
Wheat [31]
  e (wheat) effect on crop grade: 1 (weed kill ratio 5% or more, less than 20%)
Wheat [32]
  e (wheat) effect on crop grade: 0 (weed kill ratio 5% or less (practically no effect))
fig-leafed goosefoot
  M (fig-leafed goosefoot) weedkilling efficacy grade: 4 (weed kill ratio 70% or more, less than 90%)
Directly sown rice [33]
  b (directly sown rice) effect on crop grade: 4 (weed kill ratio 70% or more, less than 90%)
oval-leafed pondweed [34]
  C (oval-leafed pondweed) weedkilling efficacy grade: 5 (weed kill ratio 90% or more, (practically complete withering))
Rapeseed [35]
  g (rapeseed) effect on crop grade: 4 (weed kill ratio 70% or more, less than 90%)
Beet [36]
  f (beet) effect on crop grade: 3 (weed kill ratio 40% or more, less than 70%)
Barnyard grass [37]
  A (barnyard grass) weedkilling efficacy grade: 5 (weed kill ratio 90% or more, (practically complete withering))
Directly sown rice [38]
  b (directly sown rice) effect on crop grade: 2 (weed kill ratio 20% or more, less than 40%)
